Laboratory results as given in patent US20110166112A1, “METHOD FOR STIMULATING PLATELET PRODUCTION” (Eisai, Inc., priority 2009, published 2011).

Test system: subjects with chronic idiopathic thrombocytopenic purpura (ITP)
Assay: Phase 2 28-day study of E5501 tablets: safety and tolerability (TEAEs, discontinuations)
Format: in vivo, human
Conditions: for Discontinued study, primary reason Adverse Event or SAE / Discontinued study, primary reason Platelet Count Increase to ≧500 K/mm^3: Pharmacokinetic Population; for Abdominal pain / Diarrhoea / Ecchymosis / Epistaxis / Fatigue / Headache / Migraine / Nausea / Pain in extremity / Petechiae / Platelet count increased / Upper respiratory tract infection / Vomiting: TEAE
Description: This was a phase 2, multi-center, double-blind, randomized, placebo-controlled, dose-ranging, parallel group study of E5501 tablets, used in the treatment of subjects with chronic idiopathic thrombocytopenic purpura (ITP) refractory to or relapsed after at least one prior ITP therapy. Subjects who met all entry criteria were randomly assigned in a 3:3:3:3:1 ratio to one of the following five treatment groups dosed daily for 28 days: 1) E5501 2.5 mg; 2) E5501 5 mg; 3) E5501 10 mg; 4) E5501 20 mg; or 5) placebo (PBO). Each E5501 dosing group consisted of 15 subjects while the PBO group consisted of 5 subjects. All study subjects were evaluated weekly (days 7, 14, 21 and 28) for safety and efficacy while receiving study treatment, with a final assessment for safety and effectiveness performed 4 weeks after the last study dose (day 56) unless the subject entered the follow-on study. Platelet counts were also measured on day 3 and day 5.
The safety and tolerability parameters included adverse events, clinical laboratory parameters, study drug exposure, vital electrocardiograms, concomitant medications, serum pregnancy tests for women of childbearing potential and physical examinations including height, weight, general appearance and recording of vital signs.
The populations of interest were defined as follows: • The randomized population included all subjects who were randomized into the study. • The safety population included all randomized subjects who receive at least one dose of study drug and have at least one safety assessment. • The pharmacokinetic (PK) population included all subjects who provided blood sample for analysis of E5501. A subject was included in this population if the subject had at least one blood draw for PK assessment. • The full analysis set (FAS) included all subjects who provided adequate data to derive at least one efficacy assessment. […] The day 28 visit window was defined to be from day 25, to last dose day+1, inclusively; • Other major protocol violations that impacted the platelet endpoint evaluation. Results from Planned Analyses
Subject Disposition. Sixty four subjects were randomly assigned to treatment in this study. All treated subjects provided adequate efficacy data and therefore were included in the FAS population. The number and percentage of subjects who completed treatment or discontinued prematurely were summarized by treatment groups as shown in Table 1. In addition, the number and percentage of subjects who withdrew were summarized by reason for discontinuation by treatment group. The majority (>85%) of subjects completed the study across all dose groups for the FAS, randomized, and safety populations. Seven subjects who discontinued the study early all were from E5501 dose groups: two subjects in each of 2.5, 10 and 20 mg dose groups and one subject in the 5 mg dose group.

O=C(Nc1nc(-c2cc(Cl)cs2)c(N2CCN(C3CCCCC3)CC2)s1)c1cnc(N2CCC(C(=O)O)CC2)c(Cl)c1 [E5501, 1-(3-chloro-5-{[4-(4-chlorothiophen-2-yl)-5-(4-cyclohexylpiperazin-1-yl)thiazol-2-yl]carbamoyl}pyridine-2-yl)piperidine-4-carboxylic acid]
diarrhea, nausea and vomiting, total events: 12 events
subjects whose platelet count decreased to below that of baseline upon discontinuation of E5501: 3 subjects
subjects with diarrhea, nausea and vomiting events: 7 subjects
tolerability and safety profile: well tolerated and had a favorable safety profile
Death (2.5 mg): 0 n (%)
Serious TEAEs (Any Serious TEAE) (2.5 mg): 2 (13.3) n (%)
TEAE Leading to Study Treatment Dose Interruption (2.5 mg): 0 n (%)
TEAE Leading to Study Treatment Withdrawal (2.5 mg): 0 n (%)
TEAEs (2.5 mg): 12 (80.0) n (%)
Treatment-Related Serious TEAEs (2.5 mg): 0 n (%)
Treatment-Related TEAEs (2.5 mg): 6 (40.0) n (%)
number of serious TEAEs (2.5 mg): 2
Death (5 mg): 0 n (%)
Serious TEAEs (Any Serious TEAE) (5 mg): 0 n (%)
TEAE Leading to Study Treatment Dose Interruption (5 mg): 1 (6.7) n (%)
TEAE Leading to Study Treatment Withdrawal (5 mg): 1 (6.7) n (%)
TEAEs (5 mg): 13 (86.7) n (%)
Treatment-Related Serious TEAEs (5 mg): 0 n (%)
Treatment-Related TEAEs (5 mg): 11 (73.3) n (%)
Death (10 mg): 0 n (%)
Serious TEAEs (Any Serious TEAE) (10 mg): 1 (7.1) n (%)
TEAE Leading to Study Treatment Dose Interruption (10 mg): 0 n (%)
TEAE Leading to Study Treatment Withdrawal (10 mg): 1 (7.1) n (%)
TEAEs (10 mg): 11 (78.6) n (%)
Treatment-Related Serious TEAEs (10 mg): 1 (7.1) n (%)
Treatment-Related TEAEs (10 mg): 8 (57.1) n (%)
number of serious TEAEs (10 mg): 4
Death (20 mg): 0 n (%)
Serious TEAEs (Any Serious TEAE) (20 mg): 0 n (%)
TEAE Leading to Study Treatment Dose Interruption (20 mg): 2 (13.3) n (%)
TEAE Leading to Study Treatment Withdrawal (20 mg): 2 (13.3) n (%)
TEAEs (20 mg): 14 (93.3) n (%)
Treatment-Related Serious TEAEs (20 mg): 0 n (%)
Treatment-Related TEAEs (20 mg): 10 (66.7) n (%)
subjects who withdrew due to excessively increased platelet counts (≧500,000/mm^3) (20 mg): 2 subjects
Discontinued study, primary reason Adverse Event or SAE (2.5 mg): 0 n (%)
Discontinued study, primary reason Platelet Count Increase to ≧500 K/mm^3 (2.5 mg): 0 n (%)
Discontinued study, primary reason Adverse Event or SAE (5 mg): 1 (6.7) n (%)
Discontinued study, primary reason Platelet Count Increase to ≧500 K/mm^3 (5 mg): 0 n (%)
Discontinued study, primary reason Adverse Event or SAE (10 mg): 1 (7.1) n (%)
Discontinued study, primary reason Platelet Count Increase to ≧500 K/mm^3 (10 mg): 0 n (%)
Discontinued study, primary reason Adverse Event or SAE (20 mg): 0 n (%)
Discontinued study, primary reason Platelet Count Increase to ≧500 K/mm^3 (20 mg): 2 (13.3) n (%)
Discontinued study, primary reason Adverse Event or SAE (Total E5501): 2 (3.4) n (%)
Discontinued study, primary reason Platelet Count Increase to ≧500 K/mm^3 (Total E5501): 2 (3.4) n (%)
Abdominal pain (2.5 mg): 0 n (%)
Diarrhoea (2.5 mg): 1 (6.7) n (%)
Ecchymosis (2.5 mg): 0 n (%)
Epistaxis (2.5 mg): 4 (26.7) n (%)
Fatigue (2.5 mg): 2 (13.3) n (%)
Headache (2.5 mg): 4 (26.7) n (%)
Migraine (2.5 mg): 0 n (%)
Nausea (2.5 mg): 0 n (%)
Pain in extremity (2.5 mg): 0 n (%)
Petechiae (2.5 mg): 0 n (%)
Platelet count increased (2.5 mg): 0 n (%)
Upper respiratory tract infection (2.5 mg): 1 (6.7) n (%)
Vomiting (2.5 mg): 1 (6.7) n (%)
Abdominal pain (5 mg): 2 (13.3) n (%)
Diarrhoea (5 mg): 2 (13.3) n (%)
Ecchymosis (5 mg): 0 n (%)
Epistaxis (5 mg): 2 (13.3) n (%)
Fatigue (5 mg): 4 (26.7) n (%)
Headache (5 mg): 3 (20.0) n (%)
Migraine (5 mg): 0 n (%)
Nausea (5 mg): 0 n (%)
Pain in extremity (5 mg): 2 (13.3) n (%)
Petechiae (5 mg): 0 n (%)
Platelet count increased (5 mg): 0 n (%)
Upper respiratory tract infection (5 mg): 0 n (%)
Vomiting (5 mg): 0 n (%)
Abdominal pain (10 mg): 0 n (%)
Diarrhoea (10 mg): 0 n (%)
Ecchymosis (10 mg): 3 (21.4) n (%)
Epistaxis (10 mg): 1 (7.1) n (%)
Fatigue (10 mg): 4 (28.6) n (%)
Headache (10 mg): 1 (7.1) n (%)
Migraine (10 mg): 0 n (%)
Nausea (10 mg): 2 (14.3) n (%)
Pain in extremity (10 mg): 0 n (%)
Petechiae (10 mg): 0 n (%)
Platelet count increased (10 mg): 0 n (%)
Upper respiratory tract infection (10 mg): 2 (14.3) n (%)
Vomiting (10 mg): 1 (7.1) n (%)
Abdominal pain (20 mg): 0 n (%)
Diarrhoea (20 mg): 2 (13.3) n (%)
Ecchymosis (20 mg): 0 n (%)
Epistaxis (20 mg): 2 (13.3) n (%)
Fatigue (20 mg): 2 (13.3) n (%)
Headache (20 mg): 4 (26.7) n (%)
Migraine (20 mg): 2 (13.3) n (%)
Nausea (20 mg): 1 (6.7) n (%)
Pain in extremity (20 mg): 1 (6.7) n (%)
Petechiae (20 mg): 2 (13.3) n (%)
Platelet count increased (20 mg): 4 (26.7) n (%)
Upper respiratory tract infection (20 mg): 0 n (%)
Vomiting (20 mg): 2 (13.3) n (%)
Abdominal pain (Total E5501): 2 (3.4) n (%)
